Tested on: STAT3
Assay: IL-6 induced STAT3 phosphorylation in T47D cells (Western immunoblotting)
Assay type: cell-based, human
Details: serum deprived T47D cells; 5 μM for 0.5-3 h or 0.5-10 μM; IL-6 25 ng/ml 30 min
Method: FIG. 2. • Overnight serum deprived T47D cells were stimulated with IL-6 (25 ng/ml) for 3, 5, 10, 20, 30, 45 and 60 min. JAK2, pYJAK2, STAT3 and pYSTAT3 were detected using Western immunoblotting as described in methods. B) Overnight serum derived T47D cells were pre-incubated with compound 4 (C4) (5 μM) for 0.5, 1, 2, and 3 h and stimulated with 25 ng/ml for 30 min. JAK2, pYJAK2, STAT3 and pYSTAT3 were detected using Western immunoblotting as described in methods. C) Overnight serum derived T47D cells were preincubated with C4 at increasing concentrations (0.5-10 μM) for 3 h and stimulated with 25 ng/ml IL-6 for 30 min. JAK2, pJAK2, STAT5 and pSTAT5 were detected using Western immunoblotting as described above. Equal protein loading was confirmed using a specific human anti-β-actin antibody. C—Veh: T47D cells exposed to C4 and IL-6 vehicle (0.1% DMSO and PBS, respectively) for the indicated times. C+: T47D cells exposed to C4 vehicle (0.1% DMSO) and stimulated with IL-6 (25 ng/ml) for the indicated time.
T47D cells were routinely maintained in 75-cm^2 culture flasks with vented caps at 37° C., 5% CO2 in RPMI 1640 growth media without phenol red supplemented with 10% FBS, 2 mM L-glutamine, 10 mM HEPES, 50 U/ml penicillin/50 U/ml streptomycin, and 0.3 mg/ml gentamicin. […]

For `N#Cc1ccc(C2C3=C(CCCC3=O)OC3=C2C(=O)c2ccccc2C3=O)cc1` (stereo not shown) [Compound 4, 4-(1,6,11-trioxo-2,3,4,6,11,12-hexahydro-1H-benzo[b]xanthen-12-yl)benzonitrile], the “IL-6-induced STAT3 phosphorylation” value was “inhibits, in a time/dose dependent manner”.
